# Structures can show the parent of a compound that is named as a salt. Where two headings read alike, the source gives them in different places.
# Legend:
# [1] = tested on: Bac. megaterium NRRL B-938; assay: Minimum inhibitory concentration by the broth dilution method; type: cell-based; conditions: Priestia megaterium
# Description: (§1) (1) MA 144-M1 and MA 144-M2 have antimicrobial activity against various kinds of microorganisms.
# [2] = tested on: Bac. subtilis ATCC 6633; assay: as above; type: cell-based; conditions: Bacillus subtilis
# Description: as §1
# [3] = tested on: Cory. bovis; assay: as above; type: cell-based; conditions: Corynebacterium bovis, read-out: Minimum inhibitory concentration (MIC)
# Description: as §1
# [4] = tested on: Staph. aureus Smith; assay: as above; type: cell-based; conditions: Staphylococcus aureus, read-out: Minimum inhibitory concentration (MIC)
# Description: as §1
# [5] = tested on: Ps. fluorescens NIH JB-254; assay: as above; type: cell-based; conditions: Pseudomonas fluorescens
# Description: as §1
# [6] = tested on: Bac. cereus ATCC 9634; assay: as above; type: cell-based; conditions: Bacillus cereus
# Description: as §1
# [7] = tested on: Proteus morganii; assay: as above; type: cell-based; conditions: Morganella morganii, read-out: Minimum inhibitory concentration (MIC)
# Description: as §1
# [8] = tested on: Can. tropicalis IAM 4942; assay: as above; type: cell-based; conditions: Candida tropicalis
# Description: as §1
# [9] = tested on: Mycobact. smegmatis ATCC 607; assay: as above; type: cell-based; conditions: read-out: Minimum inhibitory concentration (MIC)
# Description: as §1
# [10] = tested on: Mic. flavus; assay: as above; type: cell-based; conditions: Micrococcus flavus, read-out: Minimum inhibitory concentration (MIC)
# Description: as §1
# [11] = tested on: Can. albicans IAM 4905; assay: as above; type: cell-based; conditions: Candida albicans
# Description: as §1
# [12] = tested on: Staph. aureus FDA 209P; assay: as above; type: cell-based; conditions: Staphylococcus aureus, FDA209P, read-out: Minimum inhibitory concentration (MIC)
# Description: as §1
# [13] = tested on: Strept. pyogenes NY 5; assay: as above; type: cell-based; conditions: Streptococcus pyogenes
# Description: as §1
# [14] = tested on: Sarcina lutea ATCC 341; assay: as above; type: cell-based; conditions: Micrococcus luteus
# Description: as §1
# [15] = tested on: L1210; assay: Therapeutic effectiveness on L1210-bearing mice; type: in vivo; conditions: intraperitoneally, day 0 to day 10, CDF1-L1210
# Experimental: (a) Therapeutic effectiveness on L1210-bearing mice
# Drug was administered intraperitoneally
# [16] = tested on: gram-positive bacteria; assay: Antimicrobial activity against gram-positive bacteria; type: cell-based; conditions: in words
# Description: as §1
# [17] = tested on: L1210 cells; assay: DNA synthesis in cultured L1210 cells; type: cell-based, mice; conditions: Mus musculus, L1210, read-out: ID50, DNA synthesis
# Experimental: (§2) In this experiment, L1210 cells were inoculated in RPMI 1640 medium (Nissui, Roswell Park Memorial Institute 1640) containing 10% calf serum and cultivated at 37° C. for 3 days in a CO2 incubator, and MA 144-M1, MA 144-M2 and ^14 C-precursor were added at various concentrations. Effects on the synthesis of protein, RNA and DNA were indicated by the 50% inhibition concentration (μg./ml.) as shown in the following table.
# [18] = Toxicity; conditions: in words
# [19] = Antitumor activity; type: in vivo; conditions: in words
# [20] = tested on: L1210 cells; assay: Cytotoxicity: growth of cultured L1210 cells; type: cell-based, mice; conditions: for IC50: Mus musculus, read-out: ID50, Growth; for inhibition of the growth of cultured L1210 cells: at the low concentration, in words
# [21] = in vivo; conditions: Rat
# [22] = in vivo; conditions: Mouse
# [23] = tested on: L1210 cells; assay: Protein synthesis in cultured L1210 cells; type: cell-based, mice; conditions: Mus musculus, L1210, read-out: % inhibition, Protein synthesis
# Experimental: as §2
# [24] = tested on: Sarcoma 180; assay: Therapeutic effectiveness on Sarcoma 180 solid tumor; type: in vivo, dd mice; conditions: intraperitoneally, day 1 to day 10; for Weight of tumor: control 1.68
# Experimental: (c) Therapeutic effectiveness on Sarcoma 180 solid tumor
# dd mice were inoculated with 2×10^6 cells of Sarcoma 180, and drug was administered intraperitoneally from day 1 to day 10.
# [25] = Basicity and lipophilicity
# [26] = tested on: L1210 cells; assay: RNA synthesis in cultured L1210 cells; type: cell-based, mice; conditions: for inhibition of RNA synthesis: L1210 cells, in words
# Experimental: as §2
# [27] = Solubility
# [28] = tested on: P388; assay: Therapeutic effectiveness on P388-bearing mice; type: in vivo; conditions: intraperitoneally, day 1 to day 9, CDF1-P388
# Experimental: (b) Therapeutic effectiveness on P388-bearing mice
# Drug was administered intraperitonally
smiles,measurement,setting,value
CCC1(O)CC(OC2CC(N(C)C)C(OC3CC(O)C(OC4CCC(O)C(C)O4)C(C)O3)C(C)O2)c2c(cc3c(c2O)C(=O)c2c(O)cccc2C3=O)C1C(=O)OC (stereo not shown) [MA 144-M1],MIC,"[1]; NRRLB938, read-out: Minimum inhibitory concentration (MIC)",3.1 µg/mL
same,MIC,"[2]; ATCC6633, read-out: Minimum inhibitory concentration (MIC)",0.4 µg/mL
same,MIC,[3],0.4 µg/mL
same,MIC,[4],0.2 µg/mL
same,MIC,"[5]; NIHJB254, read-out: Minimum inhibitory concentration (MIC)",> 100 µg/mL
same,MIC,"[6]; ATCC9634, read-out: Minimum inhibitory concentration (MIC)",0.78 µg/mL
same,MIC,[7],> 100 µg/mL
same,MIC,"[8]; IAM4942, read-out: Minimum inhibitory concentration (MIC)",> 100 µg/mL
same,MIC,[9],2.5 µg/mL
same,MIC,[10],0.2 µg/mL
same,MIC,"[11]; IAM4905, read-out: Minimum inhibitory concentration (MIC)",100 µg/mL
same,MIC,[12],3.1 µg/mL
same,MIC,"[13]; NY5, read-out: Minimum inhibitory concentration (MIC)",1.25 µg/mL
same,MIC,"[14]; ATCC341, read-out: Minimum inhibitory concentration (MIC)",0.05 µg/mL
same,Prolongation of the survival time,[15]; 0.156 mg/kg/day,110%
same,Prolongation of the survival time,[15]; 0.313 mg/kg/day,110%
same,Prolongation of the survival time,[15]; 0.625 mg/kg/day,123%
same,Prolongation of the survival time,[15]; 1.25 mg/kg/day,137%
same,Prolongation of the survival time,[15]; 2.5 mg/kg/day,192%
same,Prolongation of the survival time,[15]; 5 mg/kg/day,200%
same,Prolongation of the survival time,[15]; 10 mg/kg/day,90%
same,antimicrobial activity against gram-positive bacteria,[16],show antimicrobial activity against gram-positive bacteria
same,IC50,[17],1.7 µg/mL
same,toxicity,[18],low toxicity
same,antitumor activity,[19],marked antitumor activity
same,IC50,"[20]; L1210, 72 h",0.12 µg/mL
same,inhibition of the growth of cultured L1210 cells,[20],inhibited markedly
same,LD50,[21]; ip,25 to 30 mg/kg
same,LD50,[21]; iv,25 to 30 mg/kg
same,LD50,[22]; ip,35 mg/kg
same,LD50,[22]; iv,30 to 35 mg/kg
same,inhibition at 10 µg/mL,[23],10%
same,% Inhibition of tumor growth,[24]; 0.3 mg/kg/day,25.5%
same,Weight of tumor,[24]; 0.3 mg/kg/day,1.25 g
same,% Inhibition of tumor growth,[24]; 0.6 mg/kg/day,53.7%
same,Weight of tumor,[24]; 0.6 mg/kg/day,0.78 g
same,% Inhibition of tumor growth,[24]; 1.25 mg/kg/day,51.9%
same,Weight of tumor,[24]; 1.25 mg/kg/day,0.81 g
same,% Inhibition of tumor growth,[24]; 2.5 mg/kg/day,61.3%
same,Weight of tumor,[24]; 2.5 mg/kg/day,0.65 g
same,% Inhibition of tumor growth,[24]; 5 mg/kg/day,77.4%
same,Weight of tumor,[24]; 5 mg/kg/day,0.38 g
same,basicity,[25],Weakly basic
same,lipophilicity,[25],lipophilic
same,inhibition of RNA synthesis,[26],completely inhibited RNA synthesis
same,IC50,"[26]; Mus musculus, L1210, read-out: ID50, RNA synthesis",0.7 µg/mL
same,solubility: slightly soluble in,[27],"slightly soluble in water, diethyl ether and n-hexane"
same,solubility: soluble in,[27],"soluble in acidic water, dimethyl sulfoxide, methylcellosolve, methanol, ethanol, ethyl acetate, acetone, chloroform, benzene, toluene"
same,Prolongation of the survival time,[28]; 0.313 mg/kg/day,110%
same,Prolongation of the survival time,[28]; 0.625 mg/kg/day,135%
same,Prolongation of the survival time,[28]; 1.25 mg/kg/day,149%
same,Prolongation of the survival time,[28]; 2.5 mg/kg/day,184%
same,Prolongation of the survival time,[28]; 5 mg/kg/day,100%
CCC1(O)CC(OC2CC(N(C)C)C(OC3CC(O)C(OC4CCC(O)C(C)O4)C(C)O3)C(C)O2)c2c(cc3c(c2O)C(=O)c2c(O)cccc2C3=O)C1C(=O)OC (stereo not shown) [MA 144-M1 hydrochloride salt],solubility: slightly soluble in,[27],slightly soluble in acetone and ethyl acetate
same,solubility: soluble in,[27],"soluble in water, methanol and chloroform"
CCC1(O)CC(OC2CC(N(C)C)C(OC3CC(O)C(OC4CCC(O)C(C)O4)C(C)O3)C(C)O2)c2c(cc3c(c2O)C(=O)c2c(O)ccc(O)c2C3=O)C1C(=O)OC (stereo not shown) [MA 144-M2],MIC,"[1]; NRRLB938, Bac. megaterium NRRL B-938, broth dilution, read-out: Minimum inhibitory concentration (MIC)",0.78 µg/mL
same,MIC,"[2]; ATCC6633, Bac. subtilis ATCC 6633, broth dilution, read-out: Minimum inhibitory concentration (MIC)",0.05 µg/mL
same,MIC,"[3]; Cory. bovis, broth dilution",0.1 µg/mL
same,MIC,"[4]; Staph. aureus Smith, broth dilution",0.1 µg/mL
same,MIC,"[5]; NIHJB254, Ps. fluorescens NIH JB-254, broth dilution, read-out: Minimum inhibitory concentration (MIC)",> 100 µg/mL
same,MIC,"[6]; ATCC9634, Bac. cereus ATCC 9634, broth dilution, read-out: Minimum inhibitory concentration (MIC)",0.05 µg/mL
same,MIC,"[7]; Proteus morganii (the Institute for Infectious Diseases), broth dilution",> 100 µg/mL
same,MIC,"[8]; IAM4942, Can. tropicalis IAM 4942, broth dilution, read-out: Minimum inhibitory concentration (MIC)",100 µg/mL
same,MIC,"[9]; Mycobact. smegmatis ATCC 607, broth dilution",1.25 µg/mL
same,MIC,"[10]; Mic. flavus, broth dilution",0.2 µg/mL
same,MIC,"[11]; IAM4905, Can. albicans IAM 4905, broth dilution, read-out: Minimum inhibitory concentration (MIC)",50 µg/mL
same,MIC,"[12]; Staph. aureus FDA 209P, broth dilution",0.78 µg/mL
same,MIC,"[13]; NY5, Strept. pyogenes NY 5, broth dilution, read-out: Minimum inhibitory concentration (MIC)",0.63 µg/mL
same,MIC,"[14]; ATCC341, Sarcina lutea ATCC 341, broth dilution, read-out: Minimum inhibitory concentration (MIC)",0.05 µg/mL
same,Prolongation of the survival time,[15]; 0.156 mg/kg/day,116%
same,Prolongation of the survival time,[15]; 0.313 mg/kg/day,144%
same,Prolongation of the survival time,[15]; 0.625 mg/kg/day,192%
same,Prolongation of the survival time,[15]; 1.25 mg/kg/day,200%
same,Prolongation of the survival time,[15]; 2.5 mg/kg/day,85%
same,Prolongation of the survival time,[15]; 5 mg/kg/day,46%
same,antimicrobial activity against gram-positive bacteria,[16],show antimicrobial activity against gram-positive bacteria
same,toxicity,[18],low toxicity
same,antitumor activity,[19],marked antitumor activity
same,IC50,"[20]; 72 h, cultured L1210 cells, 37° C., 3 days",0.05 µg/mL
same,inhibition of the growth of cultured L1210 cells,[20],inhibited markedly
same,LD50,[21]; ip,10 to 15 mg/kg
same,LD50,[21]; iv,10 to 15 mg/kg
same,LD50,[22]; ip,12.5 mg/kg
same,LD50,[22]; iv,12 to 20 mg/kg
same,% Inhibition of tumor growth,[24]; 0.3 mg/kg/day,16%
same,Weight of tumor,[24]; 0.3 mg/kg/day,1.41 g
same,% Inhibition of tumor growth,[24]; 0.6 mg/kg/day,46.5%
same,Weight of tumor,[24]; 0.6 mg/kg/day,0.90 g
same,% Inhibition of tumor growth,[24]; 1.25 mg/kg/day,76.8%
same,Weight of tumor,[24]; 1.25 mg/kg/day,0.39 g
same,% Inhibition of tumor growth,[24]; 2.5 mg/kg/day,83.3%
same,Weight of tumor,[24]; 2.5 mg/kg/day,0.28 g
same,Weight of tumor,[24]; 5 mg/kg/day,toxic
same,basicity,[25],Weakly basic
same,inhibition of RNA synthesis,[26],completely inhibited RNA synthesis
same,Prolongation of the survival time,[28]; 0.313 mg/kg/day,125%
same,Prolongation of the survival time,[28]; 0.625 mg/kg/day,148%
same,Prolongation of the survival time,[28]; 1.25 mg/kg/day,206%
same,Prolongation of the survival time,[28]; 2.5 mg/kg/day,83%
same,Prolongation of the survival time,[28]; 5 mg/kg/day,57%
